Measurements taken from patent US4866055A, “Cephalosporin derivatives and their crystalline derivatives” (Mochida Pharmaceutical Co., Ltd., priority 1986, dated 1989).
≈ marks a conversion by molar mass, not a printed value. Read-outs that look alike come from different tables or passages of the source.

Columns and labels:
[1] = test system: Pseudomonas aeruginosa 13; assay: Antibacterial activity in vitro, agar plate dilution method (MIC); format: cell-based
Method: (§1) Antibacterial activity in vitro was determined in accordance with the agar plate dilution method.
(§2) A platinum loop each of test bacteria (10^6 cells/ml), cultured in Mueller Hinton broth, was inoculated on Mueller Hinton agar plates which contained test compounds at various concentrations. After cultivating at 37° C. for 20 hours, the minimum inhibitory concentration (MIC μg/ml) was determined.

[2] = test system: Escherichia coli NIHJ JC 2; assay: as above; format: cell-based; conditions: NIHJJC2, 37° C., 20 hours, Mueller Hinton agar
Method: as §1, §2

[3] = test system: Serratia marcescens IFO 3759; assay: as above; format: cell-based
Method: as §1, §2

[4] = test system: Proteus morganii IFO 3848; assay: as above; format: cell-based; conditions: Morganella morganii
Method: as §1, §2

[5] = test system: Klebsiella pneumoniae IFO 3317; assay: as above; format: cell-based
Method: as §1, §2

[6] = Acute toxicity, LD50 by the Probit method; conditions: in vivo, iv
Method: Next, LD50 of representative examples of the compounds of the present invention is shown in Table 3 herein LD50 was determined in accordance with the Probit method.

[7] = test system: Pseudomonas aeruginosa 13; assay: Protection against systemic infection in mice; format: in vivo, ICR mice; conditions: for ED50: 168 h
Method: (§3) Protection ability against systemic infection was determined as follows. An aqueous suspension of test bacteria was intraperitoneally injected into 10 four week old ICR mice. One hour after the infection, test compounds were intravenously administered. The number of surviving mice was counted 1 week after injection to determine the dose at which 50% of the test animals were alive (ED50 : mg/kg).

Escherichia coli 67 = assay: Protection against systemic infection in mice; format: in vivo, ICR mice; conditions: iv, 168 h, i.p. infection, i.v. compound 1 hour after infection, survival at 1 week
Method: as §3

[8] = test system: Staphylococcus aureus 242; assay: Protection against systemic infection in mice; format: in vivo, ICR mice; conditions: 168 h
Method: as §3

Serratia marcescens 274 = assay: Protection against systemic infection in mice; format: in vivo, ICR mice; conditions: 168 h
Method: as §3

[9] = test system: Klebsiella pneumoniae IFO 3317; assay: Protection against systemic infection in mice; format: in vivo, ICR mice; conditions: for ED50: IFO3317, iv, 168 h
Method: as §3

[10] = test system: Proteus mirabilis IFO 3849; assay: Protection against systemic infection in mice; format: in vivo, ICR mice; conditions: IFO3849, iv, 168 h
Method: as §3

Stability (storage) = format: physicochemical
Solubility = format: physicochemical; conditions: trisodium salt, amorphous solid; for parenteral use
[11] = test system: Staphylococcus aureus Smith; assay: Antibacterial activity in vitro, agar plate dilution method (MIC); format: cell-based; conditions: 37° C., 20 hours, Mueller Hinton agar
Method: as §1, §2

[12] = test system: bacterial strains except Pseudomonas aeruginosa; assay: Antibacterial activity in vitro, agar plate dilution method, all strains except Pseudomonas aeruginosa; format: cell-based; conditions: Tables 1-a through 1-b
Method: as §1, §2

experimental infection = assay: Protection of animals from experimental infection (overall); format: in vivo, ICR mice; conditions: Tables 2-a through 2-b, vs reference compound
Method: as §3

[13] = iv, Staphylococcus aureus 242, i.p. infection, i.v. compound 1 hour after infection, survival at 1 week, read-out: ED50
[14] = Pseudomonas aeruginosa 13, 37° C., 20 hours, Mueller Hinton agar, read-out: MIC
[15] = IFO3759, Serratia marcescens IFO 3759, 37° C., 20 hours, Mueller Hinton agar, read-out: MIC
[16] = IFO3848, Proteus morganii IFO 3848, 37° C., 20 hours, Mueller Hinton agar, read-out: MIC
[17] = IFO3317, Klebsiella pneumoniae IFO 3317, 37° C., 20 hours, Mueller Hinton agar, read-out: MIC
[18] = iv, Pseudomonas aeruginosa 13, i.p. infection, i.v. compound 1 hour after infection, survival at 1 week, read-out: ED50
[19] = iv, Serratia marcescens 274, i.p. infection, i.v. compound 1 hour after infection, survival at 1 week, read-out: ED50
[20] = Klebsiella pneumoniae IFO 3317, i.p. infection, i.v. compound 1 hour after infection, survival at 1 week, read-out: ED50
[21] = Proteus mirabilis IFO 3849, i.p. infection, i.v. compound 1 hour after infection, survival at 1 week, read-out: ED50

| SMILES | MIC [2] | LD50 [6] | ED50 (Escherichia coli 67) | ED50 [8, 13] | MIC [1, 14] | MIC [11] | MIC [3, 15] | MIC [4, 16] | MIC [5, 17] | ED50 [7, 18] | ED50 (Serratia marcescens 274; [19]) | ED50 [9, 20] | ED50 [10, 21] | also measured |
| --- | --- | --- | --- | --- | --- | --- | --- | --- | --- | --- | --- | --- | --- | --- |
| CC(C)(O/N=C(\C(=O)N[C@@H]1C(=O)N2C(C(=O)[O-])=C(C[n+]3ccccc3)CS[C@H]12)c1csc(N)n1)C(=O)O [CAZ, Ceftazidime] | 0.2 µg/mL (≈ 0.366 µM) | > 4000 mg/kg | 6.48 mg/kg |  |  |  |  |  |  |  |  |  |  | MIC ([1]; Pseudomonas aeruginosa, 13, 20 h): 1.56 µg/mL (≈ 2.85 µM); MIC ([3]; Serratia marcescens, IFO3759, 20 h): ≤ 0.05 µg/mL; MIC ([4]; IFO3848, 20 h): 0.2 µg/mL (≈ 0.366 µM); MIC ([5]; Klebsiella pneumoniae, IFO3317, 20 h): ≤ 0.05 µg/mL; ED50 ([7]; Pseudomonas aeruginosa, 13, iv): 145 mg/kg; ED50 ([8]; Staphylococcus aureus, 242, iv): > 100 mg/kg; ED50 (Serratia marcescens 274; Serratia marcescens, 274, iv): 3.62 mg/kg; ED50 ([9]; Klebsiella pneumoniae): 10.6 mg/kg; ED50 ([10]; Proteus mirabilis): 4.36 mg/kg |
| Cc1cc(SCC2=C(C(=O)O)N3C(=O)[C@@H](NC(=O)/C(=N\OCc4cc(O)c(O)cc4C(=O)O)c4csc(N)n4)[C@H]3SC2)n2nc(C(=O)O)nc2n1 [crystalline hydrated compound, crystalline hydrated (6R,7R)-7-[2-(2-amino-4-thiazol-yl)-2-[Z-[(2-carboxy-4,5-dihydroxyphenyl)methyl]oxyimino]acetamido]-3-[(2-carboxy-5-methyl-s-triazolo[1,5-a]pyrimidin-7-yl)thiomethyl]-8-oxo-5-thia-1-azabicyclo[4.2.0]oct-2-ene-2-carboxylic acid] |  |  |  |  |  |  |  |  |  |  |  |  |  | stability on storage (Stability (storage); crystalline hydrate): increased stability on storage |
| Cn1nnnc1SCC1=C(C(=O)O)N2C(=O)[C@@H](NC(=O)[C@H](O)c3ccccc3)[C@H]2SC1 [CMD, Cefamandole] |  |  |  | 8.94 mg/kg |  |  |  |  |  |  |  |  |  |  |
| Cc1cc(SCC2=C(C(=O)[O-])N3C(=O)[C@@H](NC(=O)/C(=N\OCc4cc(O)c(O)cc4C(=O)[O-])c4csc(N)n4)[C@H]3SC2)n2nc(C(=O)[O-])nc2n1.[Na+].[Na+].[Na+] |  |  |  |  |  |  |  |  |  |  |  |  |  | stability (Stability (storage); as bulk materials or as parenteral preparations): not necessarily sufficient; solubility (Solubility): excellent solubility |
| CC(=O)Oc1cc(C(=O)O)c(CO/N=C(\C(=O)N[C@@H]2C(=O)N3C(C(=O)O)=C(CSc4cc(C)nc5nc(C(=O)O)nn45)CS[C@H]23)c2csc(N)n2)cc1O [Reference compound, (6R,7R)-7-[2-(2-amino-4-thiazolyl)-2-[Z-[(4-acetoxy-2-carboxy-5-hydroxyphenyl)methy]oxyimino]acetamido]-3-[(2-caboxy-5-methyl-s-triazolo[1,5-a]pyrimidin-7-yl)thiomethyl]-8-oxo-5-thia-1-azabicyclo[4.2.0]oct-2-ene-2-carboxylicacid] | 0.39 µg/mL (≈ 0.488 µM) |  | 7.66 mg/kg | 12.4 mg/kg | 1.56 µg/mL (≈ 1.95 µM) | 1.56 µg/mL (≈ 1.95 µM) | ≤ 0.05 µg/mL | 0.2 µg/mL (≈ 0.25 µM) | ≤ 0.05 µg/mL | > 500 mg/kg | 2.56 mg/kg | 3.58 mg/kg | 20.1 mg/kg |  |
| Cc1cc(SCC2=C(C(=O)O)N3C(=O)[C@@H](NC(=O)/C(=N\OCc4cc(O)c(O)cc4C(=O)O)c4csc(N)n4)[C@H]3SC2)n2nc(C(=O)O)nc2n1 [Compound 1, (6R,7R)-7-[2-(2-amino-4-thiazolyl)-2-[Z-[(2-carboxy-4,5-dihydroxyphenyl)methyl]oxyimino]acetamido]-3-[(2-carboxy-5-methyl-s-triazolo[1,5-a]pyrimidin-7-yl)thiomethyl]-8-oxo-5-thia-1-azabicyclo[4.2.0]-oct-2-ene-2-carboxylic acid] | 0.39 µg/mL (≈ 0.515 µM) | > 4000 mg/kg | 1.05 mg/kg | 7.68 mg/kg | 0.1 µg/mL (≈ 0.132 µM) | 1.56 µg/mL (≈ 2.06 µM) | 0.1 µg/mL (≈ 0.132 µM) | 0.39 µg/mL (≈ 0.515 µM) | ≤ 0.05 µg/mL | 61.8 mg/kg | 0.77 mg/kg | 0.27 mg/kg | 5.07 mg/kg | times as potent as Ceftazidime ([1]; MIC, Pseudomonas aeruginosa, vs Ceftazidime): more than 10 times; times as potent as the reference compound ([1]; MIC, Pseudomonas aeruginosa, vs reference compound): more than 10 times; potency relative to the reference compound in vitro [12]: about equipotent to the reference compound; potency in protecting the animals from experimental infection relative to the reference compound (experimental infection): evidently more potent than the reference compound; times as potent as the reference compound ([7]; infection with Pseudomonas aeruginosa, vs reference compound): more than 10 times; times as potent as the reference compound ([9]; infection with Klebsiella pneumoniae, vs reference compound): more than 10 times |
